Measured values from PubChem BioAssay (NCI).
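96-well plates; 48 h exposure; 5 concentrations. Endpoints by linear interpolation between flanking doses. Not reached: highest tested concentration assigned. At the TGI there is no net growth.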

What was measured:
Assay in all cases: inhibition of tumour cell growth, NCI panel, 48 h
OVCAR-3 ovarian = system: OVCAR-3 ovarian
MOLT-4 leukemia = system: MOLT-4 leukemia
SN12C renal = system: SN12C renal
M14 melanoma = system: M14 melanoma
K-562 leukemia = system: K-562 leukemia
SK-MEL-2 melanoma = system: SK-MEL-2 melanoma
CCRF-CEM leukemia = system: CCRF-CEM leukemia
LOX IMVI melanoma = system: LOX IMVI melanoma
PC-3 prostate = system: PC-3 prostate
CAKI-1 renal = system: CAKI-1 renal
NCI-H522 lung = system: NCI-H522 lung
HCT-15 colon = system: HCT-15 colon
786-0 renal = system: 786-0 renal
TK-10 renal = system: TK-10 renal
HS 578T breast = system: HS 578T breast
HT29 colon = system: HT29 colon
UO-31 renal = system: UO-31 renal
IGROV1 ovarian = system: IGROV1 ovarian
SF-268 CNS = system: SF-268 CNS
HL-60(TB) leukemia = system: HL-60(TB) leukemia

Compound | TGI (OVCAR-3 ovarian) [µM] | TGI (MOLT-4 leukemia) [µM] | TGI (SN12C renal) [µM] | TGI (M14 melanoma) [µM] | TGI (K-562 leukemia) [µM] | TGI (SK-MEL-2 melanoma) [µM] | TGI (CCRF-CEM leukemia) [µM] | TGI (LOX IMVI melanoma) [µM] | TGI (PC-3 prostate) [µM] | TGI (CAKI-1 renal) [µM] | TGI (NCI-H522 lung) [µM] | TGI (HCT-15 colon) [µM] | TGI (786-0 renal) [µM] | TGI (TK-10 renal) [µM] | TGI (HS 578T breast) [µM] | TGI (HT29 colon) [µM] | TGI (UO-31 renal) [µM] | TGI (IGROV1 ovarian) [µM] | TGI (SF-268 CNS) [µM] | TGI (HL-60(TB) leukemia) [µM]
Cc1nc2c(=O)n(C)c(=O)nc-2n(CCO)c1C | > 100 | > 100 | > 100 | > 100 | > 100 | > 100 | > 100 | > 100 | > 100 | > 100 | > 100 | > 100 | > 100 | > 100 | > 100 | > 100 | > 100 | > 100 | > 100 | 
CN(C)CCn1c(=O)oc2cc(C(=O)CN3CCOCC3)ccc21 | > 100 | > 100 | > 100 | > 100 | > 100 | > 100 | > 100 | > 100 | > 100 | > 100 |  | > 100 | > 100 | > 100 | > 100 | > 100 | > 100 | > 100 | > 100 | > 100
COC(=O)c1ccc(/C=C2\Cc3ccccc3C2=O)cc1 | > 100 | > 100 | > 100 | > 100 | > 100 |  | > 100 |  | > 100 | > 100 | > 100 | > 100 | > 100 | > 100 | > 100 | > 100 | > 100 |  | > 100 | > 100
COC(=O)C1=C([C@H]2COC(C)(C)O2)[C@H]2C[C@@H]1[C@@H]1OC(C)(C)O[C@@H]12 | > 100 | > 100 | > 100 | > 100 | > 100 | > 100 | > 100 | > 100 | > 100 |  | > 100 | > 100 | > 100 | > 100 | > 100 | > 100 | > 100 | > 100 | > 100 | > 100
CCOC(=O)/C(=C\c1ccnc2ccccc12)P(=O)(OCC)OCC | 4.52 | > 100 | 9.19 | 5.02 | 9.96 | 4.49 | 1.96 | 3.43 | 16.8 | 7.66 | 3.18 | 3.3 | 6.14 | 14 | 8.63 | 4.62 |  | 4.33 | 6.3 | 
CC(C)Oc1c(C2(c3ccccc3O)SCCCS2)c(=O)c1=O | > 100 | > 100 | > 100 | > 100 |  | > 100 | 61.6 | > 100 | > 100 | > 100 | 58.9 | > 100 | > 100 | > 100 | > 100 | > 100 | > 100 | > 100 | > 100 | > 100
